Where “and” joins values, the source holds several entries; their conditions need not be identical. Equal entries are not always repeated. Each block holds one compound with its values, some of them ahead of it.
Assay: photoluminescence quantum yield (fraction); solvent given as SMILES

- photoluminescence quantum yield (in C1COCCO1): 0.1
- photoluminescence quantum yield (in CC#N): 0.09
- photoluminescence quantum yield (in CCCCCC): 0.15
- photoluminescence quantum yield (in CCCCCCC): 0.17
- photoluminescence quantum yield (in CCCO): 0.13
- photoluminescence quantum yield (in CCOC(C)=O): 0.08
- photoluminescence quantum yield (in CS(C)=O): 0.15
- photoluminescence quantum yield (in ClC(Cl)Cl): 0.13
- photoluminescence quantum yield (in ClCCl): 0.12
Compound: COc1ccc(C#Cc2ccc(C#N)cc2)cc1

- photoluminescence quantum yield (in ClC(Cl)Cl): 0.32 and 0.25
Compound: C(#Cc1cccs1)C(C#Cc1cccs1)=Cc1ccc(C=C(C#Cc2cccs2)C#Cc2cccs2)cc1

Compound: Cc1cc(-c2ccc(-n3c4ccccc4c4ccccc43)cc2)nc(-c2ccc(-c3ccccc3)cc2)n1
- photoluminescence quantum yield (in C1CCOC1): 0.62
- photoluminescence quantum yield (in CN(C)C=O): 0.59
- photoluminescence quantum yield (in Cc1ccccc1): 0.52
- photoluminescence quantum yield (in ClC(Cl)Cl): 0.75

- photoluminescence quantum yield (in ClC(Cl)Cl): 0.57
Compound: CC1=CC(C)=[N+]2C1=C(c1ccc(I)cc1)c1c(C)cc(C)n1[B-]2(F)F

Compound: COc1ccc(-c2c3ccc([nH]3)c3nc(c(-c4ccc(C#N)cc4)c4ccc([nH]4)c4ccc([nH]4)c(-c4ccc(OC)cc4)c4ccc2o4)C=C3)cc1
- photoluminescence quantum yield (in C1CCOC1): 0.072
- photoluminescence quantum yield (in Cc1ccccc1): 0.141
- photoluminescence quantum yield (in c1ccccc1): 0.147

Compound: CC1(C)c2ccccc2N(c2ccccc2)c2ccc(-c3nc(-c4ccccc4)nc(-c4ccccc4)n3)cc21
- photoluminescence quantum yield (in O=P(c1ccccc1)(c1ccccc1)c1ccccc1Oc1ccccc1P(=O)(c1ccccc1)c1ccccc1): 0.55

- photoluminescence quantum yield (in C1CCOC1): 0.0575
Compound: C[Si]1(c2ccccc2)C(c2ccc3c4ccccc4n(-c4ccccc4)c3c2)=C(c2ccccc2)C(c2ccccc2)=C1c1ccc2c3ccccc3n(-c3ccccc3)c2c1

- photoluminescence quantum yield (in CCCCCC): 0.29
- photoluminescence quantum yield (in CCO): 0.3
- photoluminescence quantum yield (in CCOC(C)=O): 0.29
- photoluminescence quantum yield (in ClCCl): 0.38
Compound: Cc1ccc(C#Cc2ccc3ccc4cccc5ccc2c3c45)cc1

- photoluminescence quantum yield (in CS(C)=O): 0.1
- photoluminescence quantum yield (in ClCCl): 0.69
Compound: CCN(CC)c1ccc2c(c1)oc(=O)c1c(=O)oc3cc(C#Cc4ccc(C#N)cc4)ccc3c12

- photoluminescence quantum yield (in CO): 0.37
- photoluminescence quantum yield (in ClC(Cl)Cl): 0.56
- photoluminescence quantum yield (in O): 0.031
Compound: COCCOCCOCCN1C(=O)c2cc(NCCOCCO)c3c4c(cc(NCCOCCO)c(c24)C1=O)C(=O)N(CCOCCOCCOC)C3=O

Compound: c1cc2ccc3cc4cccc5ccc6cc(c1)c2c3c6c54
- photoluminescence quantum yield (in C1CCCCC1): 0.31
- photoluminescence quantum yield (in CC#N): 0.32
- photoluminescence quantum yield (in CO): 0.38
- photoluminescence quantum yield (in Cc1ccccc1): 0.47
- photoluminescence quantum yield (in ClCCl): 0.24

Compound: COc1cccc(/C=C/c2ccccc2)c1
- photoluminescence quantum yield (in C1CCCCC1): 0.18
- photoluminescence quantum yield (in CC#N): 0.16
- photoluminescence quantum yield (in CC(C)O): 0.15
- photoluminescence quantum yield (in CCCCOCCCC): 0.2
- photoluminescence quantum yield (in CCOC(C)=O): 0.18
- photoluminescence quantum yield (in CCOCC): 0.18

- photoluminescence quantum yield (in C1COCCO1): 0.27
Compound: c1ccc(-c2ccc(-c3cc(-c4ccc(-c5ccccc5)cc4)cc(-c4ccc(-c5ccccc5)cc4)c3)cc2)cc1

- photoluminescence quantum yield (in ClCCl): 0.2
Compound: COc1ccc(-c2cc(-c3ccc(C(F)(F)F)cc3)nn2C)cc1

- photoluminescence quantum yield (in CO): 0.77
Compound: O=C(O)CCCOc1cc2ccc3cccc4ccc(c1)c2c34

- photoluminescence quantum yield (in ClC(Cl)Cl): 0.639
Compound: CN1CCc2cc(C3=Cc4cccc[n+]4[B-](F)(F)O3)ccc21

- photoluminescence quantum yield (in CCO): 0.033
- photoluminescence quantum yield (in ClCCl): 0.87
Compound: CCN(CC)c1ccc2cc(C#N)/c(=N\C(=O)c3ccccc3)oc2c1

- photoluminescence quantum yield (in ClC(Cl)Cl): 0.11
Compound: O=Cc1ccc(C#CC(C#Cc2ccc(C=O)o2)=Cc2ccc(C=C(C#Cc3ccc(C=O)o3)C#Cc3ccc(C=O)o3)cc2)o1

- photoluminescence quantum yield (in CN(C)C=O): 0.8
Compound: C(=C\c1ccc(-c2nnc(-c3ccccc3)o2)cc1)/c1ccc(-c2nnc(-c3ccccc3)o2)cc1

Compound: CCCCCCCCC1(CCCCCCCC)c2cc(-c3ccc(C(F)(F)F)cc3)ccc2-c2ccc(N(c3ccc(-n4c5ccccc5c5ccccc54)cc3)c3ccc4c(c3)C(CCCCCCCC)(CCCCCCCC)c3cc(-c5ccc(C(F)(F)F)cc5)ccc3-4)cc21
- photoluminescence quantum yield (in C1CCOC1): 0.61
- photoluminescence quantum yield (in C1COCCO1): 0.71
- photoluminescence quantum yield (in CC#N): 0.46
- photoluminescence quantum yield (in CC(C)=O): 0.51
- photoluminescence quantum yield (in CCCCCC): 0.6
- photoluminescence quantum yield (in CCCCOCCCC): 0.67
- photoluminescence quantum yield (in CCN(CC)CC): 0.52
- photoluminescence quantum yield (in CCOC(C)=O): 0.54
- photoluminescence quantum yield (in CCOCC): 0.76
- photoluminescence quantum yield (in CN(C)C=O): 0.52
- photoluminescence quantum yield (in CS(C)=O): 0.47
- photoluminescence quantum yield (in Cc1ccccc1): 0.67
- photoluminescence quantum yield (in ClC(Cl)Cl): 0.47
- photoluminescence quantum yield (in ClCCl): 0.57
- photoluminescence quantum yield (in c1ccccc1): 0.63

- photoluminescence quantum yield (in CCOC(C)=O): 0.35
Compound: CCCCCCCCCCCCOc1ccc(C#CC(C#Cc2ccc(OCCCCCCCCCCCC)cc2)=Cc2cc(C=C(C#Cc3ccc(OCCCCCCCCCCCC)cc3)C#Cc3ccc(OCCCCCCCCCCCC)cc3)cc(C=C(C#Cc3ccc(OCCCCCCCCCCCC)cc3)C#Cc3ccc(OCCCCCCCCCCCC)cc3)c2)cc1

Compound: CCn1c2ccccc2c2cc(C#Cc3cc(C#Cc4ccc5c(c4)c4ccccc4n5CC)nc(SC)n3)ccc21
- photoluminescence quantum yield (in C1CCOC1): 0.61
- photoluminescence quantum yield (in CCOC(C)=O): 0.62
- photoluminescence quantum yield (in CN(C)C=O): 0.56
- photoluminescence quantum yield (in Cc1ccccc1): 0.53
- photoluminescence quantum yield (in ClCCl): 0.64

- photoluminescence quantum yield (in ClC(Cl)Cl): 0.98
Compound: F[B-]1(F)n2c(cc(Br)c2Br)C(c2ccccc2)=C2C=C(Br)C(Br)=[N+]21

- photoluminescence quantum yield (in CN(C)C=O): 0.15
Compound: O=C1NC(=O)c2ccc3c4ccc5c6c(ccc(c7ccc1c2c73)c64)C(=O)N(c1ccc(O)cc1)C5=O

- photoluminescence quantum yield (in ClCCl): 0.94
Compound: CCN(CC)c1ccc2cc(-c3nc4ccccc4n3-c3ccccc3)c(=O)oc2c1

- photoluminescence quantum yield (in CCO): 0.53
Compound: CCOC(=O)c1cc(C(=O)OCC)c2cc(OC)ccc2n1

- photoluminescence quantum yield (in ClCCl): 0.65
Compound: CC1=C(C#Cc2ccc(B(c3c(C)cc(C)cc3C)c3c(C)cc(C)cc3C)cc2)C(C)=[N+]2C1=C(c1ccccc1)c1c(C)c(C#Cc3ccc(B(c4c(C)cc(C)cc4C)c4c(C)cc(C)cc4C)cc3)c(C)n1[B-]2(F)F

- photoluminescence quantum yield (in C1CCOC1): 0.85
Compound: CN(C)c1ccc(-c2ccc(-c3cc(N4CCCCC4)c(C#N)c4c3-c3ccccc3CC4)s2)cc1

Compound: C(#Cc1nc2ccccc2s1)c1ccc(N(c2ccc(C#Cc3nc4ccccc4s3)cc2)c2ccc(C#Cc3nc4ccccc4s3)cc2)cc1
- photoluminescence quantum yield (in Cc1ccccc1): 0.8

- photoluminescence quantum yield (in ClC(Cl)Cl): 0.28
Compound: F[B-]1(F)n2cccc2C(c2ccccc2)=C2C=CC(c3cccc(OC4=[N+]5C(=C(c6ccccc6)c6cc(Br)c(Br)n6[B-]5(F)F)C=C4Br)c3)=[N+]21

- photoluminescence quantum yield (in C1CCCCC1): 0.92
- photoluminescence quantum yield (in CC#N): 0.65
Compound: C[Si](C)(C)[Si](C)(C)c1c2ccccc2cc2ccccc12

- photoluminescence quantum yield (in C1COCCO1): 0.06
- photoluminescence quantum yield (in CC#N): 0.034
- photoluminescence quantum yield (in CO): 0.047
- photoluminescence quantum yield (in O): 0.035
Compound: O=c1[nH]c(=O)n([C@@H]2O[C@H](CO)[C@@H](O)[C@H]2O)cc1-c1cc2ccccc2s1

Compound: CC1(C)c2ccccc2N(c2ccc(-c3nc(C#N)c(C#N)nc3-c3ccc(N4c5ccccc5C(C)(C)c5ccccc54)cc3)cc2)c2ccccc21
- photoluminescence quantum yield (in Cc1ccccc1): 0.2
- photoluminescence quantum yield (in c1cc(-c2cccc(-n3c4ccccc4c4ccccc43)c2)cc(-n2c3ccccc3c3ccccc32)c1): 0.67

- photoluminescence quantum yield (in ClC(Cl)Cl): 0.02
Compound: CCCCCCc1ccc(-n2c3c4cccc(OC)c4nc(-c4ccc(C)cc4)c3c3c2c2c(-c4ccc(C)cc4)nc4c(OC)cccc4c2n3-c2ccc(CCCCCC)cc2)cc1

- photoluminescence quantum yield (in C1CCCCC1): 0.33
Compound: C[Si](C)(C)c1ccc([Si](C)(C)C)c2ccccc12

- photoluminescence quantum yield (in ClC(Cl)Cl): 0.73
Compound: CC(C)(C)c1ccc(Oc2cc3c4c(cc(Oc5ccc(C(C)(C)C)cc5)c5c6c(Oc7ccc(C(C)(C)C)cc7)cc7c8c(cc(Oc9ccc(C(C)(C)C)cc9)c(c2c45)c86)C(=O)N(Cc2ccccc2)C7=O)C(=O)N(Cc2ccccc2)C3=O)cc1

Compound: CCCCCCN(c1ccccc1)c1ccc2c(c1)C(CC)(CC)c1cc(/C=C/c3ccc(/C=C(\C#N)C(=O)O)s3)ccc1-2
- photoluminescence quantum yield (in C1CCOC1): 0.458
- photoluminescence quantum yield (in C1COCCO1): 0.813
- photoluminescence quantum yield (in CC#N): 0.105
- photoluminescence quantum yield (in CC(C)=O): 0.251
- photoluminescence quantum yield (in CCOC(C)=O): 0.443
- photoluminescence quantum yield (in CN(C)C=O): 0.638
- photoluminescence quantum yield (in CS(C)=O): 0.322
- photoluminescence quantum yield (in ClCCl): 0.047

- photoluminescence quantum yield (in C1CCOC1): 0.07
Compound: c1cc2c3c4c5c(cccc5cc3c1)-c1cccn1B4n1cccc1-2

Compound: O=Cc1ccc2c(c1)c1ccccc1n2-c1cc2ccccc2c2ccccc12
- photoluminescence quantum yield (in CC#N): 0.015
- photoluminescence quantum yield (in CCCCC): 0.025
- photoluminescence quantum yield (in Cc1ccccc1): 0.022
- photoluminescence quantum yield (in ClCCl): 0.03

- photoluminescence quantum yield (in ClCCl): 0.2
Compound: CCc1ccc(C2=[N+]3C(=Cc4c5ccc(OC)cc5c(-c5ccc(CC)s5)n4[B-]3(F)F)c3ccc(OC)cc32)s1

- photoluminescence quantum yield (in C1CCOC1): 0.82
Compound: N#Cc1ccc(/C=C/C(F)(F)F)c(N)c1

- photoluminescence quantum yield (in ClCCl): 0.021
Compound: C(S/C=C/c1ccc(/C=C/SC=C2CCCC2)cc1)=C1CCCC1

Compound: CCC1=C(C)C2=Cc3c4ccccc4c4n3[B-](c3ccc5ccc6cccc7ccc3c5c67)(Oc3ccccc3-4)[N+]2=C1C (stereo unspecified)
- photoluminescence quantum yield (in CC#N): 0.66
- photoluminescence quantum yield (in CCCCCC): 0.72
- photoluminescence quantum yield (in Cc1ccccc1): 0.66
- photoluminescence quantum yield (in ClCCl): 0.71

Compound: CC1(C)c2ccccc2N(c2ccc(C(=C(C#N)C#N)c3ccc(N4c5ccccc5C(C)(C)c5ccccc54)cc3)cc2)c2ccccc21
- photoluminescence quantum yield (in Cc1ccccc1): 0.0171

- photoluminescence quantum yield (in CS(C)=O): 0.89
Compound: Cc1ccc(-c2nc3sc4ccccc4c3s2)cc1

Compound: CCCCCCCCCCCCNc1cccc2[n+]1[B-](F)(F)n1c(c3cccc4cccc1c43)=N2
- photoluminescence quantum yield (in C1CCOC1): 0.18
- photoluminescence quantum yield (in CC#N): 0.12
- photoluminescence quantum yield (in CCCCCC): 0.58
- photoluminescence quantum yield (in Cc1ccccc1): 0.36
- photoluminescence quantum yield (in ClCCl): 0.25

- photoluminescence quantum yield (in CCCCC(CC)n1c2ccc(-n3c4ccccc4c4ccccc43)cc2c2cc(-n3c4ccccc4c4ccccc43)ccc21): 0.208
- photoluminescence quantum yield (in c1cc(-n2c3ccccc3c3ccccc32)cc(-n2c3ccccc3c3ccccc32)c1): 0.321
Compound: O=S(=O)(c1cccc(N2c3ccccc3Oc3ccccc32)c1)c1cccc(N2c3ccccc3Oc3ccccc32)c1

- photoluminescence quantum yield (in CC#N): 0.031
Compound: COc1ccc(-c2csc(/C(C#N)=C/c3ccc(Cl)cc3Cl)n2)cc1

- photoluminescence quantum yield (in ClC(Cl)Cl): 0.95
Compound: CCCCCCCCC1(CCCCCCCC)c2cc(-c3ccc(C#N)cc3)ccc2-c2ccc(-c3ccc(C#N)cc3)cc21

- photoluminescence quantum yield (in ClCCl): 0.99
Compound: C1=C2C3=C(C4=[N+]2[B-]2(Oc5ccccc54)Oc4ccccc4-c4c5c(c1n42)C1CCC5CC1)C1CCC3CC1 (stereo unspecified)

- photoluminescence quantum yield (in C1CCOC1): 0.013
Compound: F[B-]1(F)OC(c2ccccc2)=C(c2ccccc2)c2oc3ccccc3[n+]21
